In US9777005B2 (Takeda Pharmaceutical Company Limited, priority 2012, dated 2017):
pEC50: −log10 of the molar value.

Biological target: T1, human M1 receptor (hCHRM1) (Homo sapiens, UniProt P11229)
T1 construct: expressed in transfected cells; host or cells: CHO-K1
T1 sequence (P11229 1-460): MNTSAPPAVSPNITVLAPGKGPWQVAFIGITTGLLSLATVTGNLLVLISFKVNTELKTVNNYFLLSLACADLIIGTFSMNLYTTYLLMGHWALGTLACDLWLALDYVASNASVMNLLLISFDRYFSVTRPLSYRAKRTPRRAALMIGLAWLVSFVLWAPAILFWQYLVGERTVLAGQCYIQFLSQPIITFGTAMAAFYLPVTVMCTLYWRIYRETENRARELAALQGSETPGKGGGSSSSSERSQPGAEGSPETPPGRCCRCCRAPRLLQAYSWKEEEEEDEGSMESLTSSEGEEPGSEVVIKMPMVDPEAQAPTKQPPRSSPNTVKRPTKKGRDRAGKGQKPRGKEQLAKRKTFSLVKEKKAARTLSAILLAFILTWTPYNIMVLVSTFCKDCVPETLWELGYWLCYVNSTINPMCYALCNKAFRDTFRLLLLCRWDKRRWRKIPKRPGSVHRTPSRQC
Experiment: Measurement of M1 receptor positive allosteric modulator (M1PAM) activity, calcium fluorescence (FLIPRtetra) in CHO-K1 cells in the presence of acetylcholine at EC20
Assay type: cell-based
Conditions: in the presence of acetylcholine at EC20 (final 0.6 nM), CHO-K1 cells expressing hCHRM1; for pEC50: inflection point of M1PAM activity, read-out: IP value; for activity (%) at 10 μM: test compound 10 μM
Procedure, shortened: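 CHO-K1 cells expressing human M1 were loaded with Fluo-4 AM, and compound was added with acetylcholine at EC20 (final 0.6 nM). Calcium fluorescence was read on FLIPRtetra for 1 min. Activity was normalized to 1 μM acetylcholine (100%) and DMSO (0%), and the curve inflection point was reported as IP.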

Structure (SMILES) | pEC50 | activity (%) at 10 μM
CCCc1ccc(Oc2nccc3c2C(=O)N(Cc2ccc(C(N)=O)c(F)c2)C3)c(F)c1 [Example 452, 2-fluoro-4-((4-(2-fluoro-4-propylphenoxy)-3-oxo-1,3-dihydro-2H-pyrrolo[3,4-c]pyridin-2-yl)methyl)benzamide] | 7.35 | 102%
CCc1ccc(Oc2nccc3c2C(=O)N(Cc2ccc(C(=O)NC)nc2)C3)c(F)c1 [Example 453, 5-((4-(4-ethyl-2-fluorophenoxy)-3-oxo-1,3-dihydro-2H-pyrrolo[3,4-c]pyridin-2-yl)methyl)-N-methylpyridine-2-carboxamide] | 7.25 | 97%
CNC(=O)c1ccc(CN2Cc3ccnc(Oc4ccc(C5CC5)cc4F)c3C2=O)cn1 [Example 454, 5-((4-(4-cyclopropyl-2-fluorophenoxy)-3-oxo-1,3-dihydro-2H-pyrrolo[3,4-c]pyridin-2-yl)methyl)-N-methylpyridine-2-carboxamide] | 7.52 | 86%
CCCc1ccc(Oc2nccc3c2C(=O)N(Cc2ccc(C(=O)NC)nc2)C3)c(F)c1 [Example 455, 5-((4-(2-fluoro-4-propylphenoxy)-3-oxo-1,3-dihydro-2H-pyrrolo[3,4-c]pyridin-2-yl)methyl)-N-methylpyridine-2-carboxamide] | 7.22 | 86%
CNC(=O)c1ccc(CN2Cc3ccnc(Oc4ccc(C(F)(F)F)cc4F)c3C2=O)cn1 [Example 456, 5-((4-(2-fluoro-4-(trifluoromethyl)phenoxy)-3-oxo-1,3-dihydro-2H-pyrrolo[3,4-c]pyridin-2-yl)methyl)-N-methylpyridine-2-carboxamide] | 7.34 | 91%
NC(=O)c1ccc(CN2Cc3ccnc(Oc4ccc(CC(F)(F)F)cc4F)c3C2=O)cc1F [Example 459, 2-fluoro-4-((4-(2-fluoro-4-(2,2,2-trifluoroethyl)phenoxy)-3-oxo-1,3-dihydro-2H-pyrrolo[3,4-c]pyridin-2-yl)methyl)benzamide] | 7.49 | 93%
NC(=O)c1ccc(CN2Cc3cccc(Oc4ccc(C(F)(F)F)cc4F)c3C2=O)cc1F [Example 461, 2-fluoro-4-((7-(2-fluoro-4-(trifluoromethyl)phenoxy)-1-oxo-1,3-dihydro-2H-isoindol-2-yl)methyl)benzamide] | 7.30 | 95%

Stronger by pEC50, values ahead:

pEC50 | activity (%) at 10 μM | Structure (SMILES)
7.59 | 107% | NC(=O)c1ccc(CN2Cc3ccnc(Oc4ccc(C5CC5)cc4F)c3C2=O)cc1F [Example 446, 4-((4-(4-cyclopropyl-2-fluorophenoxy)-3-oxo-1,3-dihydro-2H-pyrrolo[3,4-c]pyridin-2-yl)methyl)-2-fluorobenzamide]
7.77 | 96% | NC(=O)c1ccc(CN2Cc3cccc(Oc4ccc(C(F)(F)F)cc4F)c3C2=O)cc1 [Example 460, 4-((7-(2-fluoro-4-(trifluoromethyl)phenoxy)-1-oxo-1,3-dihydro-2H-isoindol-2-yl)methyl)benzamide]
7.92 | 93% | NC(=O)c1ccc(CN2Cc3ccnc(Oc4ccc(CC(F)(F)F)cc4F)c3C2=O)cc1 [Example 458, 4-((4-(2-fluoro-4-(2,2,2-trifluoroethyl)phenoxy)-3-oxo-1,3-dihydro-2H-pyrrolo[3,4-c]pyridin-2-yl)methyl)benzamide]
7.96 | 105% | CCCc1ccc(Oc2nccc3c2C(=O)N(Cc2ccc(C(=O)NC)cc2)C3)c(F)c1 [Example 451, 4-((4-(2-fluoro-4-propylphenoxy)-3-oxo-1,3-dihydro-2H-pyrrolo[3,4-c]pyridin-2-yl)methyl)-N-methylbenzamide]
8.00 | 102% | CCCc1ccc(Oc2nccc3c2C(=O)N(Cc2ccc(C(N)=O)cc2)C3)c(F)c1 [Example 450, 4-((4-(2-fluoro-4-propylphenoxy)-3-oxo-1,3-dihydro-2H-pyrrolo[3,4-c]pyridin-2-yl)methyl)benzamide]
8.03 | 99% | CCc1ccc(Oc2nccc3c2C(=O)N(Cc2ccc(C(N)=O)cc2)C3)c(F)c1 [Example 449, 4-((4-(4-ethyl-2-fluorophenoxy)-3-oxo-1,3-dihydro-2H-pyrrolo[3,4-c]pyridin-2-yl)methyl)benzamide]
8.07 | 91% | CNC(=O)c1ccc(CN2Cc3ccnc(Oc4ccc(CC(F)(F)F)cc4F)c3C2=O)cc1 [Example 457, 4-((4-(2-fluoro-4-(2,2,2-trifluoroethyl)phenoxy)-3-oxo-1,3-dihydro-2H-pyrrolo[3,4-c]pyridin-2-yl)methyl)-N-methylbenzamide]
8.21 | 102% | NC(=O)c1ccc(CN2Cc3ccnc(Oc4ccc(C5CC5)cc4F)c3C2=O)cc1 [Example 448, 4-((4-(4-cyclopropyl-2-fluorophenoxy)-3-oxo-1,3-dihydro-2H-pyrrolo[3,4-c]pyridin-2-yl)methyl)benzamide]
8.28 | 93% | CNC(=O)c1ccc(CN2Cc3ccnc(Oc4ccc(C5CC5)cc4F)c3C2=O)cc1 [Example 447, 4-((4-(4-cyclopropyl-2-fluorophenoxy)-3-oxo-1,3-dihydro-2H-pyrrolo[3,4-c]pyridin-2-yl)methyl)-N-methylbenzamide]
